pEC50, pIC50: −log10 of the molar value. Like-named read-outs stand apart in the source and are kept apart here.
Assays:
STAT6 = target: T1, STAT6 (Homo sapiens, UniProt P42226); assay: STAT6 Reporter Luciferase Assay (IL-13 stimulated HaCaT keratinocyte NanoLuc reporter cells); type: cell-based; settings: read-out: Reporter EC50
T1 construct: stably transfected HaCaT keratinocyte cell line, which expresses NanoLuc luciferase reporter gene under the transcriptional control of the STAT6 responsive promoter; endogenous in cells; host or cells: HaCaT keratinocyte reporter cell line (stably transfected with a NanoLuc reporter)
T1 sequence (P42226 1-847): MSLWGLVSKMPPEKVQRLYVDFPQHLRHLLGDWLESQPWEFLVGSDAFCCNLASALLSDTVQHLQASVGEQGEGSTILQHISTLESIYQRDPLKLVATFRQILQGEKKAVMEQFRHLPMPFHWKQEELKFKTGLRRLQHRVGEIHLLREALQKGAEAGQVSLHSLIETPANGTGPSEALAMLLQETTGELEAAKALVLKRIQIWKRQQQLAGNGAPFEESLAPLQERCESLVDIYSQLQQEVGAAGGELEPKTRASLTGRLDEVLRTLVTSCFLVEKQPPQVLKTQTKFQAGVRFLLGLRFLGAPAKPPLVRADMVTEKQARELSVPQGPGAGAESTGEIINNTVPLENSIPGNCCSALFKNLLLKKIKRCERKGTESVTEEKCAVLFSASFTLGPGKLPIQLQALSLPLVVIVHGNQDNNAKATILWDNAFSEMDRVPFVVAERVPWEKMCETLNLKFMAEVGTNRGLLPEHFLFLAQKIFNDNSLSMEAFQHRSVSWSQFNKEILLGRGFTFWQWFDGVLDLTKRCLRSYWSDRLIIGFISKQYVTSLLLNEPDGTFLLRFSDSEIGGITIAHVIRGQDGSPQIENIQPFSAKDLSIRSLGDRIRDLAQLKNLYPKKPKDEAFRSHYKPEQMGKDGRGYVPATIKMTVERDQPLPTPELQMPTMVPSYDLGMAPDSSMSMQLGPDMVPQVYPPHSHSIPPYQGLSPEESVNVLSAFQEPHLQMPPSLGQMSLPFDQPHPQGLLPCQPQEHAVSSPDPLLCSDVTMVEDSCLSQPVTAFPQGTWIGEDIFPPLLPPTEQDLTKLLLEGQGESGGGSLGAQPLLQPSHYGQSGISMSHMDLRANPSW
Method in brief: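 IL-13 (0.12 nM, 4 h) stimulated STAT6 reporter activity in HaCaT cells after a 2 h compound pre-incubation; NanoLuc signal was measured.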

[1] = system: CCL17 secretion in peripheral human whole blood; assay: Human Whole Blood (HWB) CCL17 TR-FRET Assay (IL-13 stimulated CCL17 secretion); type: cell-based
Method in brief: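 Heparin-anticoagulated human blood; cpd 11-pt 3-fold dilution, duplicate, 2 h 37 °C preinc; IL-13 10 ng/mL final, 48 h 37 °C; spin, serum CCL17 by TR-FRET ELISA, 16 h RT, 665/615 ratio; IC50.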

[2] = IL-13 stimulated HaCaT STAT6 NanoLuc reporter cells
[3] = Homo sapiens, 48 h, human whole blood, 10 ng/mL IL13, 48 hours
[4] = STAT6 NanoLuc luciferase reporter, IL-13 stimulated HaCaT keratinocyte cells
[5] = Homo sapiens, 48 h, inhibition of CCL17 secretion in human whole blood, 10 ng/mL IL13, 48 hours
[6] = Homo sapiens, 48 h, human whole blood, IL-13 stimulated

Structure (SMILES) | pEC50 (STAT6; [2]) | pIC50 [1, 3] | also measured
CC(C)n1nc(C(=O)NCc2ccc(NC(=O)N3CCC4(CC3)CN(C)C4)cc2)c2c1[C@@H](C)CN(c1ccc(-n3ccccc3=O)cn1)C2 [Example 633, (S)-1-isopropyl-7-methyl-N-(4-(2-methyl-2,7-diazaspiro[3.5]nonane-7-carboxamido)benzyl)-5-(2-oxo-2H-[1,3′-bipyridin]-6′-yl)-4,5,6,7-tetrahydro-1H-pyrazolo[4,3-c]pyridine-3-carboxamide] | 8.70 | 7.89 | 
CC(C)n1nc(C(=O)NCc2ccc(NC(=O)N(C)C)cc2)c2c1CCN(c1ccc(N3CCC4(CC4)C3=O)cn1)C2 [Example 65, N-(4-(3,3-dimethylureido)benzyl)-1-isopropyl-5-(5-(4-oxo-5-azaspiro[2.4]heptan-5-yl)pyridin-2-yl)-4,5,6,7-tetrahydro-1H-pyrazolo[4,3-c]pyridine-3-carboxamide] |  |  | pEC50 (STAT6; [4]): 6.68; pIC50 [1, 5]: 4.55
COCC(C)n1nc(C(=O)NCc2ccc(NC(=O)N(C)C)cc2)c2c1[C@@H](C)CN(c1ccc(C(=O)N(C)C)cn1)C2 (mixture of isomers) [Example 344, (S)-5-(5-(dimethylcarbamoyl)pyridin-2-yl)-N-(4-(3,3-dimethylureido)benzyl)-1-((RS)-1-methoxypropan-2-yl)-7-methyl-4,5,6,7-tetrahydro-1H-pyrazolo[4,3-c]pyridine-3-carboxamide] | 9.00 |  | pIC50 [1, 6]: 8.10
CN(C)C(=O)Nc1ccc(CNC(=O)c2nn(C3CCOC3)c3c2CN(c2ccc(C(=O)N(C)C)cn2)CC3)cc1 (single isomer, unassigned) [Example 190, rel-(R or S)-5-(5-(dimethylcarbamoyl)pyridin-2-yl)-N-(4-(3,3-dimethylureido)benzyl)-1-(tetrahydrofuran-3-yl)-4,5,6,7-tetrahydro-1H-pyrazolo[4,3-c]pyridine-3-carboxamide] | 7.70 |  | pIC50 ([1]; human whole blood, IL-13 stimulated, 48 hours): 7.42
CC(C)n1nc(C(=O)NCc2ccc(NC(=O)N3CCN(C)CC3)c(F)c2)c2c1[C@@H](C)CN(c1ccc(-n3ccccc3=O)cc1)C2 [Example 715, (S)-N-(3-fluoro-4-(4-methylpiperazine-1-carboxamido)benzyl)-1-isopropyl-7-methyl-5-(4-(2-oxopyridin-1(2H)-yl)phenyl)-4,5,6,7-tetrahydro-1H-pyrazolo[4,3-c]pyridine-3-carboxamide] | 8.30 |  | pIC50 ([1]; Homo sapiens, 48 h, human whole blood, IL-13 10 ng/mL): 7.17
CC(C)n1nc(C(=O)NCc2ccc(NC(=O)N3CCCNCC3)c(F)c2)c2c1[C@@H](C)CN(c1ccc(C(=O)N(C)C)cc1)C2 [Example 576, (S)-N-(4-(1,4-diazepane-1-carboxamido)-3-fluorobenzyl)-5-(4-(dimethylcarbamoyl)phenyl)-1-isopropyl-7-methyl-4,5,6,7-tetrahydro-1H-pyrazolo[4,3-c]pyridine-3-carboxamide] | 8.40 | 7.72 | 
CC(C)n1nc(C(=O)NCc2ccc(NC(=O)N(C)C)cc2)c2c1CCN(c1ccc(N3C(=O)CCC34CC4)cn1)C2 [Example 73, N-(4-(3,3-dimethylureido)benzyl)-1-isopropyl-5-(5-(5-oxo-4-azaspiro[2.4]heptan-4-yl)pyridin-2-yl)-4,5,6,7-tetrahydro-1H-pyrazolo[4,3-c]pyridine-3-carboxamide] |  |  | pEC50 (STAT6; [4]): 6.92; pIC50 [1, 5]: 5.03
CCn1nc(C(=O)NCc2ccc(NC(=O)N(C)C)cc2)c2c1[C@H](C)[C@@H](C)N(c1ccc(C(=O)N(C)C)cn1)C2 (single isomer, unassigned) [Example 353] | 8.40 |  | pIC50 [1, 6]: 7.33
CC(C)n1nc(C(=O)NCc2ccc(NC(=O)N3CCCN(C)CC3)cc2)c2c1[C@@H](C)CN(c1ccc(C(=O)N(C)C)cc1)C2 [Example 567, (S)-5-(4-(Dimethylcarbamoyl)phenyl)-1-isopropyl-7-methyl-N-(4-(4-methyl-1,4-diazepane-1-carboxamido)benzyl)-4,5,6,7-tetrahydro-1H-pyrazolo[4,3-c]pyridine-3-carboxamide] | 9.00 | 7.89 | 
